According to PMC9572513, “Novel Unsymmetric 3,5-Bis(benzylidene)-4-piperidones That Display Tumor-Selective Toxicity” (Molecules, 2022):
Where two headings read alike, the source gives them in different places.

Legend:
[1] = test system: CRL1790 non-malignant colon cells; assay: Cytotoxicity against CRL1790 non-malignant colon cells; type: cell-based; settings: Homo sapiens, 48 h
Procedure: (§1) The culture medium was supplemented with 10% heat-inactivated fetal bovine serum (FBS) and 1% penicillin–streptomycin antibiotics. The time of the bioassays was 48 h. The determinations were undertaken in triplicate on three different occasions.

[2] = test system: HCT116 and HT29 colon cancer cells; assay: Average over HCT116 and HT29 colon cancer cells; type: cell-based, human
Procedure: as §1

[3] = test system: Ca9-22 squamous cell carcinoma cells; assay: MTT cytotoxicity against Ca9-22 squamous cell carcinoma; type: cell-based, human; settings: for CC50: 48 h, MTT, read-out: Ca9-22 CC50; for Ca9-22 SI: average CC50 HGF/HPLF/HPC divided by CC50 Ca9-22
Procedure: (§2) The method for evaluating 2a–f and 3a–e against human oral squamous cell carcinoma (OSCC) cell lines (Ca9-22, HSC-2, HSC-3, HSC-4) and human non-malignant oral cells [human gingival fibroblast (HGF), human periodontal ligament fibroblast (HPLF), and human pulp cell (HPC)] have been reported previously, except the length of time of this bioassay was extended from 24 h to 48 h. In brief, different quantities of the compounds were incubated with the cells in Dulbecco’s modified eagle medium (DMEM), which was supplemented with 10% FBS and antibiotics. The cell viability was determined by the 3-(4,5-dimethylthiazol-2-yl)-2,5-diphenyl-2H-tetrazolium bromide (MTT) method as summarized previously (Figure 4).

[4] = test system: HSC-2 squamous cell carcinoma cells; assay: MTT cytotoxicity against HSC-2 squamous cell carcinoma; type: cell-based, human; settings: for CC50: 48 h, MTT, read-out: HSC-2 CC50; for HSC-2 SI: average CC50 HGF/HPLF/HPC divided by CC50 HSC-2
Procedure: as §2

[5] = test system: HSC-3 squamous cell carcinoma cells; assay: MTT cytotoxicity against HSC-3 squamous cell carcinoma; type: cell-based, human; settings: for CC50: 48 h, MTT, read-out: HSC-3 CC50; for HSC-3 SI: average CC50 HGF/HPLF/HPC divided by CC50 HSC-3
Procedure: as §2

[6] = test system: HSC-4 squamous cell carcinoma cells; assay: MTT cytotoxicity against HSC-4 squamous cell carcinoma; type: cell-based, human; settings: for CC50: 48 h, MTT, read-out: HSC-4 CC50; for HSC-4 SI: average CC50 HGF/HPLF/HPC divided by CC50 HSC-4
Procedure: as §2

[7] = test system: Ca9-22, HSC-2, HSC-3, and HSC-4 squamous cell carcinoma cell lines; assay: Average over Ca9-22, HSC-2, HSC-3 and HSC-4 OSCC cell lines; type: cell-based, human; settings: for CC50: average of four OSCC cell lines, read-out: Average CC50; for Average SI: average of SI for four OSCC cell lines
Procedure: as §2

[8] = MTT cytotoxicity against human gingival fibroblast (HGF); type: cell-based; settings: human, human gingival fibroblasts (HGF), non-malignant oral cells
Procedure: as §2

[9] = MTT cytotoxicity against human periodontal ligament fibroblast (HPLF); type: cell-based; settings: human, human periodontal ligament fibroblasts (HPLF), non-malignant oral cells
Procedure: as §2

[10] = MTT cytotoxicity against human pulp cell (HPC); type: cell-based; settings: human, human pulp cells (HPC), non-malignant oral cells
Procedure: as §2

[11] = Average over HGF, HPLF and HPC non-malignant oral cells; type: cell-based, human; settings: human, HPLF and HPC non-malignant oral cells (average), average of HGF
Procedure: as §2

[12] = test system: CEM cells; assay: Differential DNA staining (DNS) cytotoxicity assay, CEM cells; type: cell-based; settings: Homo sapiens, CCRF-CEM
Procedure: (§3) The method used for generating the data of human acute lymphocytic leukemia (CEM) and human acute promyelocytic leukemia (HL-60) cells in Table 4 has been described previously. In brief, the cells were cultured in media supplemented with 10% FBS and antibiotics. […] The CC50 values of the compounds listed in Table 4 were obtained by linear interpolation equations [28, 29].

[13] = test system: HL-60 cells; assay: Differential DNA staining (DNS) cytotoxicity assay, HL-60 cells; type: cell-based; settings: Homo sapiens
Procedure: as §3

[14] = test system: Ca9-22 cells; assay: Cell cycle analysis in Ca9-22 cells (propidium iodide); type: cell-based, human; settings: dose-response 0.625-10 μM, 24 h
Procedure: Apoptosis induction in Ca9-22 cells was evaluated by cell cycle analysis and Western blot analysis as described previously [25, 28] […] Briefly, for the cell cycle analysis, cells were treated for 24 h with the test samples. Cells were then fixed, digested with RNase A, stained with propidium iodide, filtered through Falcon® cell trainers (Corning Inc., Corning, NY, USA), and then subjected to cell sorting.

[15] = test system: CEM cells; assay: Annexin V-FITC apoptosis assay in CEM cells; type: cell-based, human; settings: CC50 and twice the CC50 concentrations, 24 h
Procedure: In order to discover if representative compounds induce apoptosis, the annexin V-FITC assay was used. In brief, CEM cells were treated with various compounds for 24 h. The cells were collected and stained with propidium iodide and annexin V-FITC.

[16] = test system: CEM cells; assay: ROS production in CEM cells (carboxy-H2DCFDA, flow cytometry); type: cell-based, human; settings: CC50 and twice the CC50 concentrations
Procedure: (§4) Apoptosis induction in Ca9-22 cells was evaluated by cell cycle analysis and Western blot analysis as described previously (Figure 5). Briefly, for the cell cycle analysis, cells were treated for 24 h with the test samples. Cells were then fixed, digested with RNase A, stained with propidium iodide, filtered through Falcon® cell trainers (Corning Inc., Corning, NY, USA), and then subjected to cell sorting. For the Western blot, cell lysates (equivalent to 5 µg protein) were applied to SDS-polyacrylamide gel electrophoresis. A literature method was used to determine whether representative compounds led to increases in the production of ROS [29]. In brief, CEM cells were treated with the compounds overnight, then with 6-carboxy-2′,7′-dichlorodihydrofluorescein diacetate (carboxy-H2DCFDA) and the samples were processed using flow cytometry.

[17] = test system: Ca9-22 cells; assay: Western blot for caspase 3 activation in Ca9-22 cells; type: cell-based, human; settings: 3 μM, 24 h
Procedure: as §4

[18] = test system: CEM cells; assay: Mitochondrial membrane potential in CEM cells (JC-1, flow cytometry); type: cell-based, human; settings: 7 h
Procedure: The effect on the mitochondrial membrane potential in CEM cells was undertaken using a published method. In brief, the cells were incubated with different compounds for 7 h. The cells were then stained with the JC-1 dye, and the samples were examined by flow cytometry. The results are portrayed in Figure 6C.

[19] = test system: HGF non-malignant cells; assay: MTT cytotoxicity against human gingival fibroblast (HGF); type: cell-based; settings: non-malignant oral cells, 48 h
Procedure: as §2

[20] = test system: HPLF non-malignant cells; assay: MTT cytotoxicity against human periodontal ligament fibroblast (HPLF); type: cell-based; settings: non-malignant oral cells, 48 h
Procedure: as §2

[21] = test system: HPC non-malignant cells; assay: MTT cytotoxicity against human pulp cell (HPC); type: cell-based; settings: non-malignant oral cells, 48 h
Procedure: as §2

[22] = test system: HGF, HPLF, and HPC non-malignant cells; assay: Average over HGF, HPLF and HPC non-malignant oral cells; type: cell-based, human; settings: average of HGF
Procedure: as §2

CCN(CC)Cc1cc(C=C2CNCC(=Cc3ccc(OC)c(OC)c3)C2=O)ccc1O.Cl.Cl [Compound 2b, 3-(3-Diethylaminomethyl-4-hydroxybenzylidene)-5-(3,4-dimethoxybenzylidene)-4-piperidone dihydrochloride]
IC50 [1]: 15.2 ± 0.15 µM
IC50 ([2]; Homo sapiens, average of HCT116 and HT29, unit printed only for the single cell-line columns): 0.25 µM
Average SI ([2]; average of SI for HCT116 and HT29): 64.2
PSE (potency-selectivity expression) ([2]; reciprocal of average IC50 x average SI x 100, colon cells): 25,680
CC50 ([3]; Homo sapiens, Ca9-22): 0.65 µM
Ca9-22 SI [3]: 10.8
CC50 ([4]; Homo sapiens, HSC-2): 1.01 µM
HSC-2 SI [4]: 6.96
CC50 ([5]; Homo sapiens, HSC-3): 0.76 µM
HSC-3 SI [5]: 9.25
CC50 ([6]; Homo sapiens, HSC-4): 1.16 µM
HSC-4 SI [6]: 6.06
CC50 ([7]; Homo sapiens): < 1 µM
Average SI [7]: 8.27
CC50 [7]: 0.9 µM
CC50 at 48 h [8]: 13.3 µM
CC50 at 48 h [9]: 5.5 µM
CC50 at 48 h [10]: 2.3 µM
CC50 at 48 h [11]: 7.03 µM
CC50 ([12]; 24 h, read-out: CC50 CEM Cells 24 h): 0.63 ± 0.08 µM
CC50 ([12]; 48 h, read-out: CC50 CEM Cells 48 h): 0.82 ± 0.03 µM
CC50 ([13]; HL-60, 24 h, read-out: CC50 HL-60 Cells 24 h): 7.75 ± 0.26 µM
CC50 ([13]; HL-60, 48 h, read-out: CC50 HL-60 Cells 48 h): 4.82 ± 0.91 µM
optimal concentration for the subG1 population [14]: 2.5 µM
apoptotic cells [15]: approximately 30%
ROS generation [16]: generate ROS
caspase 3 activation (cleavage of PARP and procaspase) [17]: induced
depolarization of the mitochondrial membrane potential [18]: induced

[NH2][Pt]([NH2])([Cl])[Cl] [CDDP, cisplatin, reference compound]
CC50 [3]: 212 µM
Ca9-22 SI [3]: >4.72
CC50 [4]: 204 µM
HSC-2 SI [4]: >4.90
CC50 [5]: 46.9 µM
HSC-3 SI [5]: >21.3
CC50 [6]: 60.4 µM
HSC-4 SI [6]: >16.6
Average SI [7]: >11.1
CC50 [7]: 131 µM
CC50 [19]: > 1000 µM
CC50 [20]: > 1000 µM
CC50 [21]: > 1000 µM
CC50 [22]: > 1000 µM
